According to patent US9204653B2, “5-fluoro pyrimidine derivatives” (DOW AGROSCIENCES LLC, priority 2008, dated 2015):
Where two headings read alike, the source gives them in different places.

Legend:
[1] = test system: Venturia inaequalis; Bayer Code VENTIN; experiment: Apple scab; format: in vivo; conditions: 24 h, % disease control rating, one day protectant; for pest or weed control at 25 ppm: read-out: VENTIN 1 DP 25 ppm; for pest or weed control at 75 ppm: read-out: VENTIN 1 DP 75 ppm
[2] = test system: Mycosphaerella graminicola; Anamorph: Septoria tritici; Bayer Code SEPTTR; experiment: Leaf blotch of wheat, foliar fungicide treatment, one day protectant (1DP) or three day curative (3DC); format: in vivo, Septoria tritici on wheat plants (variety Yuma); conditions: Zymoseptoria tritici, rating of percent disease control
[3] = test system: Cercospora beticola; Bayer Code CERCBE; experiment: Leaf spot of sugar beets; format: in vivo, Cercospora beticola on sugar beets (variety HH-88); conditions: 24 h, % disease control rating, one day protectant; for pest or weed control at 25 ppm: read-out: CERCBE 1 DP 25 ppm; for pest or weed control at 75 ppm: read-out: CERCBE 1 DP 75 ppm
[4] = 24 h, one day protectant (1DP), read-out: SETTTR 1DP 25 ppm
[5] = 24 h, one day protectant (1DP), read-out: SEPTTR 1DP 100 ppm
[6] = 72 h, three day curative (3DC), read-out: SEPTTR 3DC 25 ppm
[7] = 72 h, three day curative (3DC), read-out: SEPTTR 3DC 100 ppm

Structure (SMILES) | pest or weed control at 25 ppm [1] | pest or weed control at 75 ppm [1] | pest or weed control at 25 ppm [2, 4] | pest or weed control at 100 ppm [2, 5] | pest or weed control at 25 ppm [2, 6] | pest or weed control at 100 ppm [2, 7] | pest or weed control at 25 ppm [3] | pest or weed control at 75 ppm [3]
Nc1nc(OCc2ccc(F)cc2C(F)(F)F)ncc1F [Compound 271] | 26 to 50% | 51 to 75% | 76 to 100% | 76 to 100% | 51 to 75% | 76 to 100% | 26 to 50% | 26 to 50%
COc1cc(COc2ncc(F)c(N)n2)cc(Cl)n1 [Compound 311] | 26 to 50% | 26 to 50% | 76 to 100% | 76 to 100% | 76 to 100% | 76 to 100% | 26 to 50% | 26 to 50%
Nc1nc(OCc2ccc(-c3ccccn3)s2)ncc1F [Compound 316] | 76 to 100% | 76 to 100% | 76 to 100% | 76 to 100% | 76 to 100% | 76 to 100% | 51 to 75% | 76 to 100%
CC(Oc1ncc(F)c(N)n1)c1cccc2ccccc12 (stereo not shown) [Compound 335] | 76 to 100% | 76 to 100% | 76 to 100% | 76 to 100% | 76 to 100% | 76 to 100% | 26 to 50% | 76 to 100%
CS(=O)(=O)Oc1ncc(F)c(N)n1 [Compound 337] | 51 to 75% | 76 to 100% | 26 to 50% | 76 to 100% | 26 to 50% | 26 to 50% | 51 to 75% | 76 to 100%
COc1c(F)cccc1COc1ncc(F)c(N)n1 [Compound 341] | 26 to 50% | 0 to 25% | 76 to 100% | 76 to 100% | 76 to 100% | 76 to 100% | 0 to 25% | 0 to 25%
Nc1nc(OCc2ccccc2N2CCOCC2)ncc1F [Compound 342] | 76 to 100% | 76 to 100% | 76 to 100% | 76 to 100% | 76 to 100% | 76 to 100% | 26 to 50% | 76 to 100%
CCOCNc1nc(OCc2cccs2)ncc1F [Compound 343] | 76 to 100% | 51 to 75% | 26 to 50% | 76 to 100% | 76 to 100% | 76 to 100% | 76 to 100% | 76 to 100%
CCNN(CC)c1nc(OCc2ccc(F)cc2)ncc1F [Compound 352] | 0 to 25% | 26 to 50% | 0 to 25% | 0 to 25% | 0 to 25% | 0 to 25% | 0 to 25% | 0 to 25%
NN(c1nc(OCc2ccc(F)cc2)ncc1F)C1CCCCC1 [Compound 353] | 26 to 50% | 76 to 100% | 0 to 25% | 0 to 25% | 0 to 25% | 0 to 25% | 26 to 50% | 26 to 50%
CC(Oc1ncc(F)c(N)n1)c1ccc(C(F)(F)F)nc1 (stereo not shown) [Compound 356] | 51 to 75% | 26 to 50% | 26 to 50% | 51 to 75% | 26 to 50% | 51 to 75% | 51 to 75% | 0 to 25%
Nc1nc(OCC2CCCC2)ncc1F [Compound 370] | 26 to 50% | 26 to 50% | 0 to 25% | 0 to 25% | 0 to 25% | 0 to 25% | 26 to 50% | 26 to 50%
Fc1cnc(OCc2ccccc2)nc1NNc1ccccn1 [Compound 373] | 0 to 25% | 26 to 50% | 0 to 25% | 0 to 25% | 26 to 50% | 51 to 75% | 0 to 25% | 0 to 25%
CN1CCCC1CCOc1ncc(F)c(N)n1 (stereo not shown) [Compound 384] | 51 to 75% | 0 to 25% | 51 to 75% | 76 to 100% | 26 to 50% | 76 to 100% | 0 to 25% | 0 to 25%
O=C(OCNc1nc(OCc2ccc(F)cc2)ncc1F)C1CC1 [Compound 410] | 26 to 50% | 51 to 75% | 51 to 75% | 76 to 100% | 51 to 75% | 76 to 100% | 26 to 50% | 26 to 50%
O=C(Nc1nc(OCc2ccc(F)cc2)ncc1F)c1cccc2nnsc12 [Compound 411] | 51 to 75% | 51 to 75% | 76 to 100% | 76 to 100% | 26 to 50% | 26 to 50% | 26 to 50% | 26 to 50%
CN(C)/C=N/c1nc(OCc2cccc(C#N)c2)ncc1F [Compound 418] | 51 to 75% | 51 to 75% | 76 to 100% | 76 to 100% | 76 to 100% | 76 to 100% | 0 to 25% | 0 to 25%
Cc1nc(COc2ncc(F)c(N)n2)cs1 [Compound 436] | 76 to 100% | 76 to 100% | 76 to 100% | 76 to 100% | 76 to 100% | 76 to 100% | 51 to 75% | 26 to 50%
CCOCNc1nc(OCc2ccc(OC)c(F)c2)ncc1F [Compound 452] | 0 to 25% | 26 to 50% | 76 to 100% | 76 to 100% | 76 to 100% | 76 to 100% | 0 to 25% | 0 to 25%
CC(C)(C)OC(=O)NOc1ncc(F)c(N)n1 [Compound 481] | 76 to 100% | 76 to 100% | 76 to 100% | 76 to 100% | 76 to 100% | 76 to 100% | 26 to 50% | 76 to 100%
